Laboratory results taken from PubChem BioAssay (NCI).
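Tested at 5 concentrations; 48 h exposure; 96-well plates; endpoints linearly interpolated, else capped at highest concentration. TGI is the concentration that stops growth completely.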

Assays:
Assay in all cases: inhibition of tumour cell growth, NCI panel, 48 h
[1] = tested on: SNB-19 CNS
[2] = tested on: TK-10 renal
[3] = tested on: MALME-3M melanoma
[4] = tested on: HT29 colon
[5] = tested on: PC-3 prostate
[6] = tested on: HCC-2998 colon
[7] = tested on: BT-549 breast
[8] = tested on: UACC-257 melanoma
[9] = tested on: SK-OV-3 ovarian
[10] = tested on: OVCAR-4 ovarian

Row | Structure (SMILES) | TGI [1] | TGI [2] | TGI [3] | TGI [4] | TGI [5] | TGI [6] | TGI [7] | TGI [8] | TGI [9] | TGI [10]
1 | Cc1cc(S(=O)(=O)Nc2nnc3cc(C(F)(F)F)cc(C)n23)c(S)cc1Cl | > 86.4 µM | > 100 µM | > 100 µM | > 100 µM | > 100 µM | > 70.1 µM | > 100 µM | > 100 µM | > 90.2 µM | > 100 µM
2 | O=C(O)c1ccccc1/C=N\NC1=NCCCCN1 | > 100 µM | > 100 µM | > 100 µM | > 100 µM | > 100 µM | > 100 µM | > 100 µM | > 100 µM | > 100 µM | > 100 µM
3 | Cc1ccc(S(=O)(=O)N2CCN(CCN(C)CCN3CCN(S(=O)(=O)c4ccc(C)cc4)CC3)CC2)cc1 | 69.4 µM | 30.2 µM | 33.7 µM | 29.9 µM | 56 µM | 29.4 µM | 30.6 µM | 30.5 µM | 33.3 µM | 43.7 µM
4 | CCN(CC)CCCNc1ccc2nnn3c4ccc(O)cc4c(=O)c1c23 | 22.8 µM | 17.6 µM | 26.4 µM | 14.1 µM | 19.3 µM | 23.4 µM | 27 µM | 32.6 µM | 22.1 µM | 19.3 µM
5 | O=C1OS2(OCc3cccc4cccc2c34)c2ccccc21 (stereo not given) | > 100 µM | > 100 µM | > 100 µM | > 100 µM | > 100 µM | > 100 µM | > 100 µM | > 100 µM | > 100 µM | > 100 µM
6 | CCCCCCCCCCCCCCCCNc1nc(=O)n(C2CC(O)C(CO)O2)cc1F (stereo not given) | 34.6 µM | 27.5 µM | 22.8 µM | 21.5 µM | 21.2 µM | 14.2 µM | 32.4 µM | 33.9 µM | 28.3 µM | 40.4 µM
7 | CC(C)(C)OC(=O)N1C(OP(=O)(Oc2ccccc2)Oc2ccccc2)=COc2cccnc21 | > 100 µM | > 100 µM | 98.2 µM | > 100 µM | > 100 µM | > 100 µM | > 100 µM | > 100 µM | > 100 µM | > 100 µM
8 | O=C(Nc1cccc(-c2cn3ccccc3n2)c1)c1ccncc1 | > 100 µM | > 100 µM | > 100 µM | > 100 µM | > 100 µM | > 100 µM | 72 µM | 73.5 µM | > 100 µM | > 100 µM
9 | O=C1NC(N/N=C\c2ccccc2)=N/C1=C/c1ccc(Cl)cc1 | 35.9 µM | > 100 µM | 62.1 µM | > 100 µM | 43.4 µM | 36.9 µM | 49.5 µM | > 100 µM | 43.4 µM | 31.4 µM
10 | CCOC(=O)C(Cc1ccccc1)(Cc1ccc(O)cn1)NC(=O)c1ccccc1 (stereo not given) | > 100 µM | > 100 µM | 48.8 µM | 81 µM | 75.1 µM | > 100 µM | 81 µM | 95 µM | > 100 µM | 97.7 µM
11 | C/C=C/[C@H]1O[C@@](OC)([C@@H](C)[C@H](O)[C@H](C)[C@H]2OC(=O)/C(OC)=C/C(C)=C/[C@@H](C)[C@@H](O)[C@@H](C)[C@@H](O)[C@H](C)C/C(C)=C/C=C/[C@@H]2OC)CC(OC2CC(O)C(OC(N)=O)C(C)O2)[C@@H]1C (stereo not given in full) | 18.1 µM | 23.3 µM | 0.305 µM | 1.17 µM | 6.09 µM | 13.3 µM | 17.6 µM | < 0.0143 µM | 20.7 µM | 18.3 µM
12 | CCOP(=O)(OCC)C(Nc1ccc(F)cc1)c1cccc([N+](=O)[O-])c1 (stereo not given) | > 100 µM | > 100 µM | > 100 µM | > 100 µM | > 100 µM | > 100 µM | > 100 µM | > 100 µM | > 100 µM | > 100 µM
13 | CN1C2CC(=O)CC1[C@@H]1OC(c3ccccc3)O[C@H]21 (stereo not given in full) | > 100 µM | > 100 µM | > 100 µM | > 100 µM | > 100 µM | > 100 µM | > 100 µM | > 100 µM | > 100 µM | > 100 µM
14 | CCCCSc1n/c(=C\c2ccc(N(C)C)cc2)c2nnnn12 | > 100 µM | > 100 µM | > 100 µM | > 100 µM | > 100 µM | > 100 µM | > 100 µM | > 100 µM | > 100 µM | > 100 µM
15 | CCOC(=O)c1c(N2CCOCC2)[nH]c(=O)c(C(c2ccc(OC)cc2)c2c(O)c(C(=O)OCC)c(N3CCOCC3)[nH]c2=O)c1O | > 100 µM | > 100 µM | > 100 µM | > 100 µM | > 100 µM | > 100 µM | > 100 µM | > 100 µM | > 100 µM | > 100 µM
16 | CSC(=NC1=NC(C(F)(F)F)(C(F)(F)F)N=C(c2ccccc2)O1)SC | > 100 µM | > 100 µM | 37.7 µM | 61 µM | 38.9 µM | 39.6 µM | 82.4 µM | 60.5 µM | > 100 µM | 59.1 µM
